Assays:
Format in all cases: cell-based
Yersinia enterocolitica [1] = assay: Paper disk method microbicidal test; conditions: 2.5 mg/mL solution on 8.12 mm paper disk, 0 mg/mL control: 15.65 (flavone, 40% DMSO), — (catechin)
Protocol: As microbicidal test method for 5,7,4′-trihydroxy-3′,5′-dimethoxyflavone, the paper disk method was employed, by which method the microbicidal activity can be judged even in cases where a solvent has some influences.
In paper disk method, sample solutions having various sample concentration are prepared, and the sample solution was absorbed in a special paper disk, followed by drying the paper disk. Onto the plate which is made by mixing a prepared bacterial suspension with agar medium, the paper disks are placed. If the sample has a microbicidal activity, the inhibition ring which indicates the inhibition of bacterial growth is formed such that the center of the ring is coincident with the paper disk. The degree of a microbicidal activity is judged based on the size of the inhibition ring.
First, 4 mg of 5,7,4′-trihydroxy-3′,5′-dimethoxyflavone sample was dissolved in 200 μL to prepare 20 mg/mL sample solution. To 100 μL of this 20 mg/mL sample solution, 100 μL of sterilized water was added to prepare 200 μL of 10 mg/mL sample solution. To the solution, 60 μL DMSO and 140 μL of sterilized water were added to prepare 400 μL of 5.0 mg/mL sample solution. DMSO was used in the concentration of 40%, because the sample precipitated from 30% DMSO. To 350 μL of 5.0 mg/mL sample solution, 140 μL DMSO and 210 μL of sterilized water were added to prepare 700 μL of 2.5 mg/mL sample solution. In the same manner, 1.25 mg/mL and 0.625 mg/mL sample solutions were prepared. As a control, a solution containing 40% DMSO and 60% sterilized water was prepared. […] In a paper disk (8.12 mm diameter), 70 μL of these solutions each was absorbed, and the paper disks were dried for a day.
As test bacteria, Staphylococcus aureus, Salmonella sp., Yersinia enterocolitica, Pseudomonas aeruginosa, and Candida sp. were used. These bacteria were mixed with 2 mL of sterilized water to prepare bacterial suspensions having turbidity 1 (10^8/mL). The plate agar was made by mixing 0.2 mL of the bacterial suspension with 19.8 mL of BHI medium. The dried paper disk was placed onto the plate agar, and the plate was incubated in an incubator at 37° C., followed by assessing the activity. In the Table, (-) represents that no microbicidal activity was observed.

Enterococcus faecalis = assay: Agar dilution method microbicidal test; note: key: +: grew; −: did not grow
Method in brief: (§1)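 Plate-based MIC determination: 10 μL aliquots of 100-fold diluted MHB cultures inoculated onto compound-containing BHI agar (0.25–4.0 mg/mL final), then incubated overnight (18 hours, 37° C).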

Vibrio parahaemolyticus = assay: Agar dilution method microbicidal test; for Growth on agar plate: key: +: grew; −: did not grow
Method in brief: as §1

Yersinia enterocolitica [2] = assay: Agar dilution method microbicidal test; for Growth on agar plate: key: +: grew; −: did not grow
Method in brief: (§2)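 Agar dilution in BHI agar at final 4.0, 3.0, 2.0, 1.0, 0.5 and 0.25 mg/mL (DMSO stocks; catechin in sterile water). Bacteria grown in MHB, diluted to 10^6/mL, spotted onto plates, incubated 18 hours at 37° C. MIC is the lowest concentration inhibiting growth.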

Salmonella sp. = assay: Agar dilution method microbicidal test; for Growth on agar plate: key: +: grew; −: did not grow
Method in brief: as §1

Bacillus subtilis MB-32 = assay: Agar dilution method microbicidal test; for Growth on agar plate: key: +: grew; −: did not grow
Method in brief: as §1

Candida sp. = assay: Agar dilution method microbicidal test; for Growth on agar plate: key: +: grew; −: did not grow
Method in brief: as §2

In the case of catechin [reference compound], the “size of the inhibition ring” value (Yersinia enterocolitica [1]) is reported as 9.49, the “Growth on agar plate” value (Enterococcus faecalis; 0.25 mg/mL) is reported as “+” and the “Growth on agar plate” value (Enterococcus faecalis; 0.5 mg/mL) is reported as “+”. The “Growth on agar plate” value (Enterococcus faecalis; 1.0 mg/mL) was “+”, the “Growth on agar plate” value (Enterococcus faecalis; 2.0 mg/mL) was “+” and the “Growth on agar plate” value (Enterococcus faecalis; 3.0 mg/mL) was “+”. For the same substance, the “Growth on agar plate” value (Enterococcus faecalis; 4.0 mg/mL) was “+”, the “Growth on agar plate” value (Vibrio parahaemolyticus; 0.25 mg/mL) was “+” and the “Growth on agar plate” value (Vibrio parahaemolyticus; 0.5 mg/mL) was “−”. The “Growth on agar plate” value (Vibrio parahaemolyticus; 1.0 mg/mL) was “−”, the “Growth on agar plate” value (Vibrio parahaemolyticus; 2.0 mg/mL) was “−” and the “Growth on agar plate” value (Vibrio parahaemolyticus; 3.0 mg/mL) was “−”. For the same substance, the “Growth on agar plate” value (Vibrio parahaemolyticus; 4.0 mg/mL) was “−”, the MIC (Vibrio parahaemolyticus; BHI agar, 37° C., 18 hours) was 500 µg/mL and the “Growth on agar plate” value (Yersinia enterocolitica [2]; 0.25 mg/mL) was “+”. The “Growth on agar plate” value (Yersinia enterocolitica [2]; 0.5 mg/mL) was “+”, the “Growth on agar plate” value (Yersinia enterocolitica [2]; 1.0 mg/mL) was “−” and the “Growth on agar plate” value (Yersinia enterocolitica [2]; 2.0 mg/mL) was “−”. The “Growth on agar plate” value (Yersinia enterocolitica [2]; 3.0 mg/mL) was “−”, the “Growth on agar plate” value (Yersinia enterocolitica [2]; 4.0 mg/mL) was “−” and the MIC (Yersinia enterocolitica [2]; BHI agar, 37° C., 18 hours) was 1000 µg/mL. The “Growth on agar plate” value (Salmonella sp.; 0.25 mg/mL) was “+”, the “Growth on agar plate” value (Salmonella sp.; 0.5 mg/mL) was “+” and the “Growth on agar plate” value (Salmonella sp.; 1.0 mg/mL) was “+”. For the same substance, the “Growth on agar plate” value (Salmonella sp.; 2.0 mg/mL) was “−”, the “Growth on agar plate” value (Salmonella sp.; 3.0 mg/mL) was “−” and the “Growth on agar plate” value (Salmonella sp.; 4.0 mg/mL) was “−”. For the same substance, the MIC (Salmonella sp.; BHI agar, 37° C., 18 hours) was 2000 µg/mL, the “Growth on agar plate” value (Bacillus subtilis MB-32; 0.25 mg/mL) was “+” and the “Growth on agar plate” value (Bacillus subtilis MB-32; 0.5 mg/mL) was “+”. The “Growth on agar plate” value (Bacillus subtilis MB-32; 1.0 mg/mL) was “+”, the “Growth on agar plate” value (Bacillus subtilis MB-32; 2.0 mg/mL) was “−” and the “Growth on agar plate” value (Bacillus subtilis MB-32; 3.0 mg/mL) was “−”. For the same substance, the “Growth on agar plate” value (Bacillus subtilis MB-32; 4.0 mg/mL) was “−”, the MIC (Bacillus subtilis MB-32; BHI agar, 37° C., 18 hours) was 2000 µg/mL and the “Growth on agar plate” value (Candida sp.; 0.25 mg/mL) was “+”. For the same substance, the “Growth on agar plate” value (Candida sp.; 0.5 mg/mL) was “+”, the “Growth on agar plate” value (Candida sp.; 1.0 mg/mL) was “−” and the “Growth on agar plate” value (Candida sp.; 2.0 mg/mL) was “−”. The “Growth on agar plate” value (Candida sp.; 3.0 mg/mL) was “−”, the “Growth on agar plate” value (Candida sp.; 4.0 mg/mL) was “−” and the MIC (Candida sp.; BHI agar, 37° C., 18 hours) was 1000 µg/mL.

Reference: patent US20100190846A1, “MICROBICIDAL AGENT AND MICROBICIDAL COMPOSITION” (priority 2006, published 2010)
